We go through twelve molecules from patent publication US11370761B2, “Voltage-dependent T-type calcium channel inhibitor” (Nippon Chemiphar Co., Ltd., priority 2017, dated 2022).

Where a name gives a salt, the structure may show the parent alone.

The target of the test is T1, human Cav3.2 channel (Homo sapiens, UniProt O95180).
T1 construct: expressed in transfected cells
T1 sequence (O95180 whole entry): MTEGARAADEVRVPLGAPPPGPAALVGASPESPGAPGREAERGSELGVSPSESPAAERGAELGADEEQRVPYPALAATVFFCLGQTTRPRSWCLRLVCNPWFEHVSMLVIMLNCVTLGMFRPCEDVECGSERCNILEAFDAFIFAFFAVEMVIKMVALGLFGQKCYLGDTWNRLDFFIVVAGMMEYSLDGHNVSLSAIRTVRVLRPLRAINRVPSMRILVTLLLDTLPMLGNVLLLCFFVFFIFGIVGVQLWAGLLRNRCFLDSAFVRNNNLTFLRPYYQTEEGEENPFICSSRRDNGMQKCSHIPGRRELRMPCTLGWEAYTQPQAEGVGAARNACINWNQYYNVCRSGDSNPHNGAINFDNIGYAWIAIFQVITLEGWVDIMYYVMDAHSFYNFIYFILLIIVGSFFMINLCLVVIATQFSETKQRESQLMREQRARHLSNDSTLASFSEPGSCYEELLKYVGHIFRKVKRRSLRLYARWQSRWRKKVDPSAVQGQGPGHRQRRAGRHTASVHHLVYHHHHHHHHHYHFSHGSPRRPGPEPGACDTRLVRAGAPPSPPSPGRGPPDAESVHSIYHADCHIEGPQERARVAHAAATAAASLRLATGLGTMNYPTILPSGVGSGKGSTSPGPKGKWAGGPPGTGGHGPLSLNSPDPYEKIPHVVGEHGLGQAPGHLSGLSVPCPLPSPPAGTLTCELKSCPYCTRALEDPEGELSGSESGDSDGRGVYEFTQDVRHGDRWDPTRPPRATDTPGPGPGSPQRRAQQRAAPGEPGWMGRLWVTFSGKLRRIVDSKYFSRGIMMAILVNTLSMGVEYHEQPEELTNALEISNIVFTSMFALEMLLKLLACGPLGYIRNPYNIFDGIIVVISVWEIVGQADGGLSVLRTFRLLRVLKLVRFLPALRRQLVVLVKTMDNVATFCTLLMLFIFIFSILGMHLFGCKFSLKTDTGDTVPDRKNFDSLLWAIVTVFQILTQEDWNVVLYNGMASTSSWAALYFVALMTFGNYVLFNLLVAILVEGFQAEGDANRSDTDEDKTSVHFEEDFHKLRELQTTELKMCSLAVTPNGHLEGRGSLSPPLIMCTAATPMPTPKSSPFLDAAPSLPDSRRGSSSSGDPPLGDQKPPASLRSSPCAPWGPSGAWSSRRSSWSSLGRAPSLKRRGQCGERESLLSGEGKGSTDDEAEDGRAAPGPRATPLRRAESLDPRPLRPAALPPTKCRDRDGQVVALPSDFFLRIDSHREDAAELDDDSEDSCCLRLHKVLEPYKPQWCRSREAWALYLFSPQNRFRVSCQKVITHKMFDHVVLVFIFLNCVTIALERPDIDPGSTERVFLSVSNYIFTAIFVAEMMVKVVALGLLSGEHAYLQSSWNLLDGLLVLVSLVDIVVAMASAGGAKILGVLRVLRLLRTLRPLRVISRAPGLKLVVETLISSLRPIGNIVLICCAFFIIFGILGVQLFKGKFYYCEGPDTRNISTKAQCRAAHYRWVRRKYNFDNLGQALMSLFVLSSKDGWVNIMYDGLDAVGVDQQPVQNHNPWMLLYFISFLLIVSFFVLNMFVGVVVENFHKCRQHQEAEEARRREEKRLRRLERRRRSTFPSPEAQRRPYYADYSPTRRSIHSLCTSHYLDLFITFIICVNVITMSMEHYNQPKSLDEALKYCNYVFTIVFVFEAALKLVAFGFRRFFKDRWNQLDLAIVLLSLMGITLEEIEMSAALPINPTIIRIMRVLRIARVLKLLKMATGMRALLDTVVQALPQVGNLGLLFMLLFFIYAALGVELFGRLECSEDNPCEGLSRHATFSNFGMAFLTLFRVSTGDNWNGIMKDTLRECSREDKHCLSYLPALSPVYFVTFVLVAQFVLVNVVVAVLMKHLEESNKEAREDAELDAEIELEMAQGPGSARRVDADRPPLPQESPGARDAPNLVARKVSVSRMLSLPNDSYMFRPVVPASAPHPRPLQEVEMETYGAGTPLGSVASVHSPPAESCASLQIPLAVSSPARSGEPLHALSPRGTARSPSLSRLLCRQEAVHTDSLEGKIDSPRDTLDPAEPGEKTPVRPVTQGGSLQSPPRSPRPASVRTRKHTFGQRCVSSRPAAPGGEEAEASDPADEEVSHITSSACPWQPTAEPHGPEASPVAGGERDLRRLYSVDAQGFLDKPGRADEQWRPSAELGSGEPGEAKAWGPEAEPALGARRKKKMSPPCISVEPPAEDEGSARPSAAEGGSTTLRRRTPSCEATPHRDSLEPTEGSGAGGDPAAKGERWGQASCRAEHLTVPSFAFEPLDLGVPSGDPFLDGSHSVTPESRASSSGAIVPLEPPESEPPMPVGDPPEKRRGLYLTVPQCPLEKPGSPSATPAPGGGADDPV
As to the kind of experiment: Intracellular calcium concentration measurement in human Cav3.2 channel expressing stable cell line (Pharmacological Test 1). It is filed as cell-based. Particulars: HEK293 cells stably expressing human Cav3.2, Fluo-4 AM fluorescence, KCl stimulation; read-out: Cav3.2 channel inhibitory action. An excerpt:
(1) Construction of Human Cav3.2 Channel Expressing Stable Cell Line
A sequence in which a HindIII site and a kozak sequence (GCCACC) was provided on a 5′ side of a human Cav3.2 channel open reading frame (ORF) gene and a KpnI site was provided on a 3′ side thereof was incorporated into pcDNA3.1(+) (Thermo Fisher Scientific #V790-20), and the resultant was transfected into a HEK293 cell (ATCC No. CRL-1573) according to a protocol of FuGENE (registered trademark) HD Transfection Reagent (Promega #E2311).
(2) Method of Measuring Intracellular Calcium Concentration
The human Cav3.2 channel expressing stable cell line prepared by the test method (1) was seeded in a 96-well plate using a Dulbecco's modified Eagle's medium (DMEM medium) containing 10% fetal bovine serum (FBS), followed by culturing 37° C. for 48 hours under a 5% CO2 condition. Thereafter, the medium was removed, and each well washed with an A buffer was treated with 80 μL of a fluorescent dye solution containing a liquid mixture of 22 μg of a calcium fluorescent indicator Fluo-4 AM (Dojindo Molecular Technologies, Inc., #F311), 20 μL of dimethyl sulfoxide (DMSO), 1 μL of 10% Pluronic F-127 (Thermo Fisher Scientific #P6866), and 4 mL of the A buffer. After being left to stand for 45 minutes at room temperature under a light shielding condition, the cells were washed with a B buffer. In DMSO having the same final concentration as the test compound as a negative control, and the test compound dissolved in DMSO to have a final concentration of 0.1%, each test compound concentration solution containing the B buffer was added to each well. The cells were left to stand for additional 15 minutes at room temperature under a light shielding condition, and were measured using microplate reader EnVision (PerkinElmer Co., Ltd.) by the following method. First, after measuring background fluorescence in each well, an ionophore was added, and baseline fluorescence was measured. Thereafter, B buffer containing added KCl at a concentration of 83.8 mM was added to each well, and an increase in fluorescence due to calcium influx caused by the stimulation was measured for 10 seconds. Inhibition percentage was calculated from the maximum fluorescence increase value from the baseline, and an IC50 value was calculated by plotting a logarithmic value of the test compound concentration and inhibition activity. The measurement was performed by observing fluorescence of 510 nm emitted when the cells were irradiated with excitation light of 485 nm.
A buffer: 140 mM NaCl, 5 mM KCl, 1 mM MgCl2, 0.5 mM CaCl2, 10 mM Glucose, 10 mM HEPES, pH 7.3
B buffer: potassium equilibrium potential: −92 mV
As to `CC(NC(=O)C1CC1c1nc2ccccc2[nH]1)C(=O)NC1CCNCC1` (stereo not drawn) [Example 12, Trans-2-(1H-benzo[d]imidazol-2-yl)-N-(1-oxo-1-(piperidin-4-ylamino)propan-2-yl) cyclopropane-1-carboxamide hydrochloride], the IC50 is 1 to 10 µM. In the case of `CCC(=O)N1CCC(NC(=O)C(C)NC(=O)C2CC2c2nc3ccccc3[nH]2)CC1` (stereo not drawn) [Example 13, Trans-2-(1H-benzo[d]imidazol-2-yl)-N-(1-oxo-1-((1-propionylpiperidin-4-yl)amino)propan-2-yl) cyclopropane-1-carboxamide], the IC50 was over 10 µM. As to `CC(NC(=O)C1CC1c1nc2ccccc2[nH]1)C(=O)NCc1ccc(C(F)(F)F)cc1` (stereo not drawn) [Example 14, Trans-2-(1H-benzo[d]imidazol-2-yl)-N-(1-oxo-1-((4-(trifluoromethyl)benzyl)amino)propan-2-yl) cyclopropane-1-carboxamide], the IC50 lay in the range of 0.1 to 1 µM.

On to `CC(NC(=O)C1CC1c1nc2ccccc2[nH]1)C(=O)NCc1ccc(C(F)(F)F)nc1` (stereo not drawn) [Example 15, Trans-2-(1H-benzo[d]imidazol-2-yl)-N-(1-oxo-1-(((6-(trifluoromethyl)pyridin-3-yl)methyl)amino)propan-2-yl) cyclopropane-1-carboxamide], for which the IC50 lay in the range of 1 to 10 µM. With `CC(NC(=O)C1CC1c1nc2ccccc2[nH]1)C(=O)Nc1cnccn1` (stereo not drawn) [Example 17, Trans-2-(1H-benzo[d]imidazol-2-yl)-N-(1-oxo-1-(pyrazin-2-ylamino)propan-2-yl) cyclopropane-1-carboxamide], the IC50 is over 10 µM. Take `O=C(NC1(C(=O)Nc2ccccc2C(F)(F)F)CC1)[C@H]1C[C@@H]1c1nc2ccccc2[nH]1` [Example 25, 1-((1S, 2S)-2-(1H-Benzo[d]imidazol-2-yl)cyclopropane-1-carboxamido)-N-(2-(trifluoromethyl)phenyl) cyclopropane-1-carboxamide]: the IC50 lay within 1 to 10 µM. `CCn1c([C@H]2C[C@@H]2C(=O)NC2(C(=O)Nc3ccc(C(F)(F)F)nc3)CC2)nc2ccccc21` [Example 27, 1-((1S, 2S)-2-(1-Ethyl-1H-benzo[d]imidazol-2-yl)cyclopropane-1-carboxamido)-N-(6-(trifluoromethyl)pyridin-3-yl) cyclopropane-1-carboxamide]: the IC50 was at most 0.1 µM. As to `O=C(NC1(C(=O)Nc2ccc(C(F)(F)F)cc2F)CC1)[C@H]1C[C@@H]1c1nc2ccccc2[nH]1` [Example 28, 1-((1S, 2S)-2-(1H-Benzo[d]imidazol-2-yl)cyclopropane-1-carboxamido)-N-(2-fluoro-4-(trifluoromethyl)phenyl) cyclopropane-1-carboxamide], the IC50 lay in the range of 0.1 to 1 µM. Take `O=C(NC1(C(=O)Nc2cncc(C(F)(F)F)c2)CC1)[C@H]1C[C@@H]1c1nc2ccccc2[nH]1` [Example 29, 1-((1S, 2S)-2-(1H-Benzo[d]imidazol-2-yl)cyclopropane-1-carboxamido)-N-(5-(trifluoromethyl)pyridin-3-yl) cyclopropane-1-carboxamide]: the IC50 fell in the range of 1 to 10 µM. In the case of `CC(C)N(C(=O)CNC(=O)[C@H]1C[C@@H]1c1nc2ccccc2[nH]1)c1ccc(C(F)(F)F)nc1` [Example 30, (1S, 2S)-2-(1H-Benzo[d]imidazol-2-yl)-N-(2-(isopropyl (6-(trifluoromethyl)pyridin-3-yl)amino)-2-oxoethyl) cyclopropane-1-carboxamide], the IC50 is over 10 µM.

With `O=C(NC1(C(=O)Nc2ccc(F)c(C(F)(F)F)c2)CC1)[C@H]1C[C@@H]1c1nc2ccccc2[nH]1` [Example 31, 1-((1S, 2S)-2-(1H-Benzo[d]imidazol-2-yl)cyclopropane-1-carboxamido)-N-(4-fluoro-3-(trifluoromethyl)phenyl) cyclopropane-1-carboxamide], the IC50 was at most 0.1 µM.

For `O=C(NC1(C(=O)Nc2ccc(F)c(C(F)(F)F)c2)CC1)[C@H]1C[C@@H]1c1nc2cc(Cl)ccc2[nH]1` [Example 34, 1-((1S, 2S)-2-(5-Chloro-1H-benzo[d]imidazol-2-yl)cyclopropane-1-carboxamido)-N-(4-fluoro-3-(trifluoromethyl)phenyl) cyclopropane-1-carboxamide], the IC50 was at most 0.1 µM.
